Measured values: patent US20180094051A1, “METHOD FOR INHIBITING LYMPHANGIOGENESIS BY ADMINISTRATION OF AN INHIBITOR OF THE CXCL12 PATHWAY” (Tsinghua University, priority 2012, published 2018)
“Also recorded” adds a separate entry of the source.

B1: CXCR4: Printed in b110 as the treating agent; apparently a misprint for VEGF-C (protein)
chain: MEPISVSIYTSDNYSEEVGSGDYDSNKEPCFRDENVHFNRIFLPTIYFIIFLTGIVGNGLVILVMGYQKKLRSMTDKYRLHLSVADLLFVITLPFWAVDAMADWYFGKFLCKAVHIIYTVNLYSSVLILAFISLDRYLAIVHATNSQRPRKLLAEKAVYVGVWIPALLLTIPDFIFADVSQGDISQGDDRYICDRLYPDSLWMVVFQFQHIMVGLILPGIVILSCYCIIISKLSHSKGHQKRKALKTTVILILAFFACWLPYYVGISIDSFILLGVIKQGCDFESIVHKWISITEALAFFHCCLNPILYAFLGAKFKSSAQHALNSMSRGSSLKILSKGKRGGHSSVSTESESSSFHSS

Columns and labels:
[1] = system: mouse lymphatic endothelial cells; test: Cell chemotaxis assay (Transwell); type: cell-based; conditions: antibodies 5 μg/mL, AMD3100 25 μg/mL, 6 hours; for effect on migration of mouse lymphatic endothelial cells induced by CXCL12: CXCL12 100 ng/mL, LY294002 and U0126 10 μM, pretreated 30 minutes
Method: The migration ability of mouse lymphatic endothelial cells was assessed using 8-μm-pore Transwell bucket (filter membrane) (purchased from Costar). The transwell bucket was placed into a 24-well plate. Mouse primary lymphatic endothelial cells (mLECs) at passage 2 or 3 in good conditions were selected, and divided into five groups, four parallel samples for each group and approximately 2×10^4 cells for each parallel sample. The cells were digested with trypsin, resuspended in 200 μL of fresh serum-free endothelial cell culture medium (ECM, purchased from Sciencell), and then seeded into the inner chambers of the Transwell bucket. To each outer chamber was added 800 μL of serum-free endothelial cell culture medium mixed with 1 ng/mL, 20 ng/mL, 100 ng/mL of chemokine CXCL12 (purchased from R&D Systems), 100 ng/mL of VEGF-C (purchased from R&D Systems) and PBS control, respectively. The culture plate was placed into an incubator and incubated under 5% CO2 at 37° C. for 6 hours.
After taking out the culture plate, the Transwell bucket was fixed in 4% paraformaldehyde solution for 15 minutes. The Transwell bucket was rinsed twice in PBS, stained with 0.1% crystal violet solution for 30 minutes, and then washed with PBS to remove the non-specifically bound crystal violet. The cells inside Transwell membrane were wiped off gently with medical cotton swabs. Note that the cells on the edge of the membrane should also be wiped off to avoid affecting cell counting. The Transwell bucket was placed under a microscope (Olympus IX71 microscope), and the cells migrated from the outer membrane were observed by microscopy. 8 fields per group were photographed randomly to count the cells.
The migration ability of mouse lymphatic endothelial cells was assessed using 8-μm-pore Transwell bucket (purchased from Costar). The bucket was placed into a 24-well plate. Mouse primary lymphatic endothelial cells (mLECs) at passage 2 or 3 in good conditions were selected, and divided into six groups, four parallel samples for each group, and approximately 2×10^4 cells for each parallel sample. The cells were digested with trypsin and resuspended in 200 μL, of fresh serum-free endothelial cell culture medium (ECM, purchased from Sciencell). The cells were pretreated for 30 minutes with dimethyl sulfoxide (DMSO) as a control, protein kinase B (Akt) antagonist LY294002 (10 μM, purchased from Sigma-Aldrich) and extracellular signal-regulated kinase (Erk) antagonist U0126 (10 μM, purchased from Sigma-Aldrich), respectively, and then seeded into the inner chambers of the Transwell bucket. […] The cells were stained and the number of the migrated cells was counted.
The migration ability of mouse lymphatic endothelial cells was detected by using 8-μm-pore Transwell bucket (purchased from Costar). […]

[2] = system: newly formed lymphatic vessels; test: In vivo Matrigel plug assay (lymphangiogenesis); design: species or system BALB/c mice; conditions: CXCL12 500 ng/mL; antibodies 10 μg/mL, AMD3100 50 μg/mL; 8 days
Method: Matrigel plug assay was conducted as previously reported^[44]. BALB/C mice (5 weeks old, female, purchased from Vital River Laboratories, Beijing) were divided into five groups, five mice each group. Growth factor-free Matrigel (9-10 mg/mL, purchased from Becton-Dickinson Biosciences) containing 20 ng/mL, 100 ng/mL, 500 ng/mL of chemokine CXCL12 (purchased from R&D Systems), 500 ng/mL of VEGF-C (purchased from R&D Systems), and PBS control, respectively, was injected subcutaneously into the BALB/c mice along the abdominal midline. The Matrigel formed a solid plug in the mice, and the agent was slowly released from the Matrigel to stimulate new mouse lymphatic vessels to be formed and grown into the Matrigel. 8 days later, the Matrigel was removed carefully.
After being washed in PBS, the Matrigel were fixed in 30% sucrose solution at 4° C. overnight. Frozen sections in a thickness of about 10 μm were prepared and stored at −20° C. The frozen sections were blocked with a blocking solution in a humidified chamber at room temperature for 1 hour. The blocking solution was PBS containing 10% normal goat serum. […]
The newly formed lymphatic vessels in the Matrigel were detected by immunofluorescence, and observed and imaged under a laser confocal microscope (Nikon A1) using the imaging and statistic software NIS-Elements AR 3.0. […]

chemokine receptor CXCR4 = test: Immunoblotting of CXCR4 in lymphatic endothelial cells (incl. HIF-1α RNA interference); type: cell-based; conditions: mouse lymphatic endothelial cells, 100 ng/mL VEGF-C, 6, 12 and 24 hours
Method: Mouse primary lymphatic endothelial cells at passage 2 or 3 in good condition were selected, and starved overnight by replacing the culture medium with a fresh medium free of serum and growth factors. Then the medium was replaced with a medium containing 100 ng/mL of VEGF-C. The cells were incubated for 6, 12 and 24 hours, respectively, and then trypsinized and collected by centrifugation for detecting the expression level of chemokine receptor CXCR4 in the cells by immunoblotting.
The samples were subjected to SDS-PAGE (the concentration of separation gel was 15%). Protein bands were transferred to polyvinylidene difluoride (PVDF) membrane (purchased from Millipore) at 100 mA for 3 hours using an electroblotting device in ice bath. TBST buffer (20 mM Tris, pH7.4, 150 mM NaCl, 0.1% Tween-20) was formulated for preparing blocking solution, primary antibody solution and secondary antibody solution. The PVDF membrane was further incubated in blocking solution containing 5% skim milk for 1 hour at room temperature with gentle shaking. The membrane was then washed with TBST for 5 times, 5 minutes each. […]
The siRNA for interfering with the chemical synthesis of HIF-1α was purchased from Santa Cruz Biotechnology, and the negative control siRNA was purchased from GenePharma, Shanghai. […] HIF-1α knock-down efficiency was detected by immunoblotting. […]

Molecule	effect on migration of mouse lymphatic endothelial cells induced by CXCL12 [1]	effect on activity of VEGF-C (migration of mouse lymphatic endothelial cells) ([1]; VEGF-C 100 ng/mL)	effect on lymphangiogenesis induced by CXCL12 in Matrigel plug [2]	expression level of CXCR4 (chemokine receptor CXCR4)
c1cc(CN2CCCNCCNCCCNCC2)ccc1CN1CCCNCCNCCCNCC1 [AMD3100]	could inhibit the migration of mouse lymphatic endothelial cells induced by CXCL12; also recorded: activity of chemokine CXCL12 was inhibited	had no effect on the activity of growth factor VEGF-C; also recorded: the activity of VEGF-C was not affected	could significantly reduce the activity of chemokine CXCL12	–
N#CC(=C(/N)Sc1ccccc1N)/C(C#N)=C(\N)Sc1ccccc1N [U0126]	inhibited the lymphatic endothelial cell migration induced by chemokine CXCL12	–	–	–
B1	–	–	–	could upregulate the expression level of CXCR4
